{"source": "patent US20230320382A1", "about": "(DSM IP Assets B.V., priority 2018, published 2023)", "origin": "cited, not measured here", "key": {"[1]": {"settings": "added to the diet of growing pigs"}}, "data": [{"smiles": "O=C(O)c1ccccc1", "note": "[Benzoic acid]", "values": [{"measurement": "Effect on blood pH", "setting": "[1]", "value": "only slightly reduces"}, {"measurement": "Effect on urine pH", "setting": "[1]", "value": "markedly acidifies"}, {"measurement": "Site of absorption", "setting": "ingested benzoic acid", "value": "absorbed in the first tract of the small intestine"}]}]}
